In patent US20120122928A1 (priority 2010, published 2012):

Assays:
[1] = test system: Phytophthora infestans; type: in vivo; conditions: young tomato plants sprayed, active ingredient concentration of 100 (unit not given); inoculated 1 day after treatment; evaluation 7 days after inoculation; 100% = no infection
[2] = test system: Plasmopara viticola; test: Plasmopara test (grapevine) / protective; type: in vivo; conditions: young grapevine plants sprayed, active ingredient concentration 10 ppm; evaluation 6 days after inoculation; 100% = no infection
Procedure: Plasmopara Test (Grapevine)/Protective
To produce an appropriate active ingredient formulation, 1 part by weight of active ingredient is mixed with the specified amounts of solvent and emulsifier, and the concentrate is diluted with water to the desired concentration.
To test for protective efficacy, young plants are sprayed with the active ingredient formulation at the stated application rate. After the spray coating has dried on, the plants are inoculated with an aqueous spore suspension of Plasmopara viticola and then remain in an incubation cabin at approx. 20° C. and 100% relative air humidity for 1 day. Subsequently, the plants are placed in a greenhouse at approx. 21° C. and approx. 90% air humidity for 4 days. The plants are then moistened and placed in an incubation cabin for 1 day.
Evaluation follows 6 days after the inoculation. 0% means an efficacy which corresponds to that of the control, whereas an efficacy of 100% means that no infection is observed.
In this test, the following inventive compounds show, at an active ingredient concentration of 10 ppm, an efficacy of 70% or more: […]

[3] = physchem
[4] = test system: Peronospora brassicae; test: Peronospora test (oilseed rape seeds) / seed treatment; type: in vivo; conditions: dose 50 g/dt, 14-day-old plants inoculated, incubated 7 days, infected leaf area, 100% = no disease
Procedure: Peronospora Test (Oilseed Rape Seeds)/Seed Treatment
The test was conducted under greenhouse conditions.
Oilseed rape seeds treated with an inventive active compound or a combination of inventive active compounds dissolved in N-methyl-2-pyrrolidone and diluted with water to the desired dose were sown in 6*6 cm vessels. The vessels contain 4 cm of a 1:1 mixture of steam-treated field soil and sand. The plants grew at 10° C.
14-day-old plants were inoculated with an aqueous spore suspension of Peronospora brassicae. The vessels containing the plants were incubated in a greenhouse at a temperature of 15° C. and a relative air humidity of 100% for 7 days.
The assessment of the test included the evaluation of the infected leaf area per plant. 0% means an efficiency corresponding to that of the control, while an efficiency of 100% means that no disease is observed.

O=C(Cn1nc(C(F)F)cc1C(F)F)N1CCC(c2nc(C3=NOC(COc4c(F)cccc4F)C3)cs2)CC1 (centres unmarked) [I-43, 2-[3,5-Bis(difluoromethyl)-1H-pyrazol-1-yl]-1-[4-(4-{5-[(2,6-difluorophenoxy)methyl]-4,5-dihydro-1,2-oxazol-3-yl}-1,3-thiazol-2-yl)piperidin-1-yl]ethanone]
% eff. [1]: 95% | % eff. [2]: 100% | chromatographic logP ([3]; pH 2.7): 3.3 | chromatographic logP ([3]; pH 7.8): 3.23 | % eff. [4]: 98%
